Laboratory results taken from patent US9198432B2, “1,2,4-triazolyl-substituted ketoenols” (BAYER INTELLECTUAL PROPERTY GMBH, priority 2011, dated 2015).

What was measured:
Type in all cases: in vivo
Lucilia cuprina larvae = experiment: Lucilia cuprina (48 h) test; details: 100 ppm, after 48 hours, treated horse meat
Description: Lucilia Cuprina (48 h) Solvent: dimethyl sulfoxide To produce a suitable preparation of active compound, 10 mg of active compound are mixed with 0.5 ml of dimethyl sulfoxide, and the concentrate is diluted with water to the desired concentration. Vessels containing horse meat treated with the active compound preparation of the desired concentration are populated with about 20 Lucilia cuprina larvae. After 48 hours, the kill in % is determined 100% means that all larvae have been killed; 0% means that no larvae have been killed.

[1] = test system: greenhouse red spider mite (Tetranychus urticae); experiment: Tetranychus spray test, OP-resistant (TETRUR); details: after 6 days, bean leaf discs
Description: Tetranychus Spray Test, OP-resistant (TETRUR)
(§1) Solvents: 78.0 parts by weight of acetone • • 1.5 parts by weight of dimethylformamide
Emulsifer: 0.5 part by weight of alkylaryl polyglycol ether
(§2) To produce a suitable preparation of active compound, 1 part by weight of active compound is mixed with the stated amounts of solvent and emulsifier, and the concentrate is diluted with emulsifier-containing water to the desired concentration.
Discs of bean leaves (Phaseolus vulgaris) which are infested by all stages of the greenhouse red spider mite (Tetranychus urticae) are sprayed with an active compound preparation of the desired concentration.
After 6 days, the effect in % is determined 100% here means that all of the spider mites have been killed; 0% means that none of the spider mites have been killed.

[2] = test system: green peach aphid (Myzus persicae); experiment: Myzus persicae spray test (MYZUPE); details: 500 g/ha, after 6 days, Chinese cabbage disks
Description: Myzus persicae Spray Test (MYZUPE) Solvents: 78 parts by weight of acetone • • 1.5 parts by weight of dimethylformamide Emulsifier: 0.5 part by weight of alkylaryl polyglycol ether To produce a suitable preparation of active compound, 1 part by weight of active compound is mixed with the stated amounts of solvent and emulsifier, and the concentrate is diluted with emulsifier-containing water to the desired concentration. Disks of Chinese cabbage (Brassica pekinensis) infested by all stages of the green peach aphid (Myzus persicae) are sprayed with an active compound formulation of the desired concentration. After 6 days, the effect in % is determined 100% here means that all of the aphids have been killed; 0% means that none of the aphids have been killed.

[3] = test system: larvae of the mustard beetle (Phaedon cochleariae); experiment: Phaedon cochleariae spray test (PHAECO); details: 500 g/ha, after 7 days, Chinese cabbage leaf disks
Description: Phaedon Cochleariae Spray Test (PHAECO)
as §1
Emulsifier: 0.5 part by weight of alkylaryl polyglycol ether
as §2
After 7 days, the effect in % is determined 100% means that all beetle larvae have been killed; 0% means that none of the beetle larvae have been killed.

SMILES	efficacy (effect in %, spider mites killed) ([1]; 500 g/ha)	efficacy (effect in %, aphids killed) [2]	efficacy (effect in %, spider mites killed) ([1]; 100 g/ha)	further results
Cn1nc(-c2ccc(Cl)cc2)nc1C1=C(O)C(C)(C)NC1=O [Example I-1-a1-3]	100%	–	–	efficacy (kill in %) (Lucilia cuprina larvae): 90%
CCn1nc(-c2ccc(Cl)cc2)nc1C1=C(O)C(C)(C)NC1=O [Example I-1-a1-4]	80%	80%	–	–
CC(C)n1nc(-c2ccc(Cl)cc2)nc1C1=C(O)C(C)(C)NC1=O [Example I-1-a1-9]	–	–	90%	–
COC1CCC2(CC1)NC(=O)C(c1nc(-c3ccc(F)cc3)nn1C)=C2O (centres unmarked) [Example I-1-a2-1]	100%	100%	–	–
COC1CCC2(CC1)NC(=O)C(c1nc(-c3ccc(Cl)cc3)nn1C)=C2O (centres unmarked) [Example I-1-a2-3]	100%	100%	–	–
COC1CCC2(CC1)NC(=O)C(c1nc(-c3ccccc3)nn1C)=C2O (centres unmarked) [Example I-1-a2-5]	–	100%	–	–
Cn1nc(-c2ccc(F)cc2)nc1C1=C(O)C2(CCOCC2)NC1=O [Example I-1-a3-1]	100%	–	–	–
Cn1nc(-c2ccccc2)nc1C1=C(O)C2(CCOCC2)NC1=O [Example I-1-a3-5]	–	100%	–	–
CCn1nc(-c2ccc(Cl)cc2)nc1C1=C(O)C2CCCN2C1=O (centres unmarked) [Example I-1-a4-4]	100%	–	–	–
CCCOC1CCC2(CC1)NC(=O)C(c1nc(-c3ccc(Cl)cc3)nn1C)=C2O (centres unmarked) [Example I-1-a6-3]	90%	90%	–	efficacy (effect in %, beetle larvae killed) [3]: 100%
CC1CCC2(CC1)NC(=O)C(c1nc(-c3ccc(Cl)cc3)nn1C)=C2O (centres unmarked) [Example I-1-a7-3]	90%	90%	–	–
Cn1nc(-c2ccc(Cl)cc2)nc1C1=C(O)C2(CCC(C(F)(F)F)CC2)NC1=O (centres unmarked) [Example I-1-a8-3]	100%	–	–	–
CCON1CCC2(CC1)NC(=O)C(c1nc(-c3ccc(Cl)cc3)nn1C)=C2O [Example I-1-a9-3]	–	90%	90%	–
CON1CCC2(CC1)NC(=O)C(c1nc(-c3ccc(Cl)cc3)nn1C)=C2O [Example I-1-a10-3]	–	90%	90%	–
C=CCOC1CCC2(CC1)NC(=O)C(c1nc(-c3ccc(Cl)cc3)nn1C)=C2O (centres unmarked) [Example I-1-a11-3]	–	90%	90%	–
CC1COC2(CCC3(CC2)NC(=O)C(c2nc(-c4ccc(Cl)cc4)nn2C)=C3O)OC1 (centres unmarked) [Example I-1-a13-3]	–	90%	–	–
Cn1nc(-c2ccc(Cl)cc2)nc1-c1c(O)n2n(c1=O)CCOCC2 [Example I-8-a3]	–	90%	90%	–
CCn1nc(-c2ccc(F)cc2)nc1-c1c(O)n2n(c1=O)CCOCC2 [Example I-8-a5]	–	–	90%	–
